Patent publication US20250127800A1, “PYRIMIDINE OR PYRIDINE DERIVATIVE AND MEDICINAL USE THEREOF” (SIGNET THERAPEUTICS INC., priority 2021, published 2025)
Where two headings read alike, the source gives them in different places.

Assays:
FAK = FAK (Homo sapiens (Human), UniProt Q05397); experiment: In vitro enzymatic inhibitory activity, FAK kinase (HTRF KinEASE-TK)
SNU-668 cells = experiment: Cell proliferation inhibition, SNU-668 (CELL TITER-GLO); format: cell-based; settings: Homo sapiens, SNU668, 96 h; SNU-668, 4 days
Description: (§1) • a. SNU-668 cells (catalog number: 00668, KCLB) or NUGC4 cells (catalog number: 0834, JCRB) were allowed to grow to 70%-80% confluence, the supernatant of the culture medium was pipetitted off, rinsed once with PBS and then pipetitted off; • b. To a 10 cm dish was added 1 mL of 0.25% trypsin, votexed to homogenity and then place into incubator for digestion for 2-3 min; • c. The culture dish is removed from the incubator added with 2-3 mL complete culture medium to terminate the digestion, pipetitted into a 15 mL centrifuge tube, and then centrifuged in centrifuge at 1000 rpm for 5 minutes; • d. The supernatant was pipetitted off, and the cells were resuspended in 1 mL of complete culture medium, and then counted; • e. 1000 cells were plated into each well of 96-well plate, and then cultured overnight in a cell incubator, 2) Cell Administration with Compounds • a. Compounds to be tested were dissolved and votexed to homogeneity; • b. Each compound was serielly diluted in 1:3 ratio from 1 mM stock solution to 9 gradient concentrations; • c. The plate seeded with cells was taken out from the incubator, pipetitted off culture medium, and then added slowly in each well with 100 μL fresh culture medium by multi-channel pipette. Wells are labeled by corresponding compounds and concentrations, and then gently added with 100 μL compound-containing culture medium along the well wall by multi-channel pipette; • d. After the addition to all wells, the plate was gently shaken to allow homogeneous spread of the compound, and then put back to the incubator, with time recorded;
(§2) 4 days after the addition of compounds, the culture medium was removed and mixed at 100 μL from each well with cell titer-glo testing liquid in 1:1 ratio. The mixture was incubated with shaking at room temperature for 10 min and then counted with Plate reader.

NUGC4 cells = experiment: Cell proliferation inhibition, NUGC4 (CELL TITER-GLO); format: cell-based; settings: Homo sapiens, NUGC-4, 96 h; NUGC4, 4 days
Description: as §1, §2

[1] = In vivo pharmacokinetic evaluation in SD rats, gavage; settings: rat, plasma, po, male SD rats
Description: Three male SD rats were administered with compounds in a single dose of 5 mg/kg or 3 mg/kg by gavage, and blood samples were collected before administration and at 0.25, 0.5, 1, 2, 4, 6, 8, and 24 h after administration.
Preparation of solutions of compounds to be dosed at 5 mg/kg: 5.5 mg compound (converted based on purity) was accurately weighed and added to 0.55 mL of DMSO. Clear solutions were obtained after stirring and sonication. 0.5 mL of each of the above solutions was added with 1 mL of Solutol, stirred for 1 minute; and then added with 8.5 mL of physiological saline and stirred for 1 minute, to obtain a clear solution at 0.5 mg/mL concentration.
Preparation of a solution of compounds to be dosed at 3 mg/kg: 3.6 mg compound (converted according to purity) was accurately weighed and added to 0.6 mL of DMSO. Clear solutions were obtained after stirring and sonication. 0.5 mL of each of the above solutions was added with 1 mL of Solutol and stirred for 1 minute; and then added with 8.5 mL of physiological saline and stirred for 1 minute, to obtain a clear solution at 0.3 mg/mL concentration.
Rats were administered the formulations prepared in step 2 by gavage at a dose of 10 mL/kg. The rats were fasted overnight before the administration and resumed feeding 4 hours after administration. Throughout the entire experiment, the animals were free to access drinking water.
The plasma concentration was measured using LC-MS/MS method.

[2] = FAK kinase, enzyme pre-incubation 15 minutes at 25° C.

Chain of FAK (Q05397 whole entry, species assumed): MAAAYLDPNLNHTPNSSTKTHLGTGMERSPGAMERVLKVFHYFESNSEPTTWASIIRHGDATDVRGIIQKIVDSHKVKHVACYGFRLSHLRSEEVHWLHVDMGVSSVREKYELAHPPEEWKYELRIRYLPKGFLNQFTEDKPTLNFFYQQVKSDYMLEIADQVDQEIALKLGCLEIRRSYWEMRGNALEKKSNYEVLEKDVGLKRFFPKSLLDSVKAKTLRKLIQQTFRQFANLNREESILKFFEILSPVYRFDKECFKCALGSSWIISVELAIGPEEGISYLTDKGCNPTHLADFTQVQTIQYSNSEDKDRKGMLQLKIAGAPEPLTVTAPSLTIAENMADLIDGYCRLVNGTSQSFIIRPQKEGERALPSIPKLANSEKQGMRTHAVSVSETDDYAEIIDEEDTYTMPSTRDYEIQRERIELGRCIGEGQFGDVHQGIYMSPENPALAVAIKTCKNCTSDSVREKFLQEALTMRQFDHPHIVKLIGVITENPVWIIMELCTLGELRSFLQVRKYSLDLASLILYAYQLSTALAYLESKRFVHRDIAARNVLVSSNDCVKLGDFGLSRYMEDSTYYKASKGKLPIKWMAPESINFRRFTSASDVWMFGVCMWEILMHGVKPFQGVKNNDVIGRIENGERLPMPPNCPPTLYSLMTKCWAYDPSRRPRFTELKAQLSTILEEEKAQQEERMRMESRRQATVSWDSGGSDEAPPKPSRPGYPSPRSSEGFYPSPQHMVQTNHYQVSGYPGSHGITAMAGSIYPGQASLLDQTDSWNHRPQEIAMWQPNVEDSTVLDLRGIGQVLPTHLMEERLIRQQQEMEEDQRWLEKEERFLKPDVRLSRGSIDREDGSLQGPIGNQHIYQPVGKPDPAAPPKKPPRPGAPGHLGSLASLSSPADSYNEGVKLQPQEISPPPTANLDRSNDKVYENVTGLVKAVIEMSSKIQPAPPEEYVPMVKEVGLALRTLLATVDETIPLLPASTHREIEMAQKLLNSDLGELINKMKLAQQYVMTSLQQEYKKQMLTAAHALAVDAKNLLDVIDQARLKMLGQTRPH

Compound	IC50 (FAK; [2])	IC50 (NUGC4 cells)	further results
C=CC(=O)N1CCC(NC(=O)c2ccc(Nc3ncc(C(F)(F)F)c(NCc4nccnc4N(C)S(C)(=O)=O)n3)c(OC)c2)CC1 [Compound 1, N-(1-acryloylpiperidin-4-yl)-3-methoxy-4-((4-(((3-(N-methylmethanesulfonylamido)pyrazin-2-yl)methyl)amino)-5-(trifluoromethyl)pyrimidin-2-yl)amino)benzamide]	1.13 nM		
C=CC(=O)N1CCC(CNC(=O)c2ccc(Nc3ncc(C(F)(F)F)c(Nc4ccccc4P(C)(C)=O)n3)cc2)CC1 [Compound 7, N-((1-acryloylpiperidin-4-yl)methyl)-4-((4-((2-(dimethylphosphoryl)phenyl)amino)-5-(trifluoromethyl)pyrimidin-2-yl)amino)benzamide]	3.58 nM		
C=CC(=O)N1CCC(CNC(=O)c2ccc(Nc3ncc(C(F)(F)F)c(Nc4ccccc4P(C)(C)=O)n3)c(OC)c2)CC1 [Compound 8, N-((1-acryloylpiperidin-4-yl)methyl)-4-((4-((2-(dimethylphosphoryl)phenyl)amino)-5-(trifluoromethyl)pyrimidin-2-yl)amino)-3-methoxybenzamide]	5.79 nM		
C=CC(=O)N1CCCC(c2cccc(NCc3ccc(Nc4ncc(C(F)(F)F)c(Nc5ccccc5P(C)(C)=O)n4)cc3)c2)C1 (stereo not drawn) [Compound 10, 1-(3-(3-((4-((4-((2-(dimethylphosphoryl)phenyl)amino)-5-(trifluoromethyl)pyrimidin-2-yl)amino)benzyl)amino)phenyl)piperidin-1-yl)prop-2-en-1-one]	15.8 nM		
C=CC(=O)N1CCCC(c2cccc(NCc3ccc(Nc4ncc(C(F)(F)F)c(NCc5nccnc5N(C)S(C)(=O)=O)n4)cc3)c2)C1 (stereo not drawn) [Compound 14, N-(3-(((2-((4-(((3-(1-acryloylpiperidin-3-yl)phenyl)amino)methyl)phenyl)amino)-5-(trifluoromethyl)pyrimidin-4-yl)amino)methyl)pyrazin-2-yl)-N-methylmethanesulfonamide]	4.36 nM		
C=CC(=O)N1CCCC(c2cccc(NCc3ccc(Nc4ncc(Cl)c(Nc5ccccc5C(=O)NC)n4)cc3)c2)C1 (stereo not drawn) [Compound 15]			IC50 (SNU-668 cells): 110 nM
C=CC(=O)N1CCCC(c2cccc(NCc3ccc(Nc4ncc(Br)c(Nc5ccccc5C(=O)NC)n4)cc3)c2)C1 (stereo not drawn) [Compound 16, 2-((2-((4-(((3-(1-acryloylpiperidin-3-yl)phenyl)amino)methyl)phenyl)amino)-5-bromopyrimidin-4-yl)amino)-N-methylbenzamide]	6.73 nM		IC50 (SNU-668 cells): 60 nM
C=CC(=O)N1CCCC(c2cccc(NCc3ccc(Nc4ncc(C(F)(F)F)c(Nc5ccccc5C(=O)NCC)n4)cc3)c2)C1 (stereo not drawn) [Compound 17, 2-((2-((4-(((3-(1-acryloylpiperidin-3-yl)phenyl)amino)methyl)phenyl)amino)-5-(trifluoromethyl)pyrimidin-4-yl)amino)-N-ethylbenzamide]	6.13 nM		IC50 (SNU-668 cells): < 10 nM
C=CC(=O)N1CCCC(c2cccc(NCc3ccc(Nc4ncc(C(F)(F)F)c(Nc5ccccc5C(=O)NC(C)C)n4)cc3)c2)C1 (stereo not drawn) [Compound 18, 2-((2-((4-(((3-(1-acryloylpiperidin-3-yl)phenyl)amino)methyl)phenyl)amino)-5-(trifluoromethyl)pyrimidin-4-yl)amino)-N-isopropylbenzamide]	17.9 nM		IC50 (SNU-668 cells): 140 nM
C=CC(=O)N1CCCC(c2cccc(NCc3ccc(Nc4ncc(C(F)(F)F)c(Nc5cccc6c5C(=O)N(C)C6)n4)cc3)c2)C1 (stereo not drawn) [Compound 20, 7-((2-((4-(((3-(1-acryloylpiperidin-3-yl)phenyl)amino)methyl)phenyl)amino)-5-(trifluoromethyl)pyrimidin-4-yl)amino)-2-methylisoindolin-1-one]	4.98 nM	340 nM	
CC#CC(=O)N1CCCC(c2cccc(NCc3ccc(Nc4ncc(C(F)(F)F)c(Nc5ccccc5C(=O)NC)n4)cc3)c2)C1 (stereo not drawn) [Compound 21, 2-((2-((4-(((3-(1-(2-butynoyl)piperidin-3-yl)phenyl)amino)methyl)phenyl)amino)-5-(trifluoromethyl)pyrimidin-4-yl)amino)-N-methylbenzamide]	4.33 nM	40 nM	
C=C(C)C(=O)N1CCCC(c2cccc(NCc3ccc(Nc4ncc(C(F)(F)F)c(Nc5ccccc5C(=O)NC)n4)cc3)c2)C1 (stereo not drawn) [Compound 24, 2-((2-((4-(((3-(1-methylacryloylpiperidin-3-yl)phenyl)amino)methyl)phenyl)amino)-5-(trifluoromethyl)pyrimidin-4-yl)amino)-N-methylbenzamide]		20 nM	
C/C=C/C(=O)N1CCCC(c2cccc(NCc3ccc(Nc4ncc(C(F)(F)F)c(Nc5ccccc5C(=O)NC)n4)cc3)c2)C1 (stereo not drawn) [Compound 32, (E)-2-((2-((4-(((3-(1-(but-2-enoyl)piperidin-3-yl)phenyl)amino)methyl)phenyl)amino)-5-(trifluoromethyl)pyrimidin-4-yl)amino)-N-methylbenzamide]	3.43 nM	40 nM	
C=C(F)C(=O)N1CCCC(c2cccc(NCc3ccc(Nc4ncc(C(F)(F)F)c(Nc5ccccc5C(=O)NC)n4)cc3)c2)C1 (stereo not drawn) [Compound 33, 2-((2-((4-(((3-(1-(2-fluoroacryloyl)piperidin-3-yl)phenyl)amino)methyl)phenyl)amino)-5-(trifluoromethyl)pyrimidin-4-yl)amino)-N-methylbenzamide]		20 nM	
C=CC(=O)N1CCC[C@H](c2cccc(NCc3ccc(Nc4ncc(C(F)(F)F)c(Nc5ccccc5C(=O)NC)n4)cc3)c2)C1 [Compound 34, (R)-2-((2-((4-(((3-(1-acryloylpiperidin-3-yl)phenyl)amino)methyl)phenyl)amino)-5-(trifluoromethyl)pyrimidin-4-yl)amino)-N-methylbenzamide]	1.27 nM	80 nM	
C=CC(=O)N1CCC[C@@H](c2cccc(NCc3ccc(Nc4ncc(C(F)(F)F)c(Nc5ccccc5C(=O)NC)n4)cc3)c2)C1 [Compound 35, (S)-2-((2-((4-(((3-(1-acryloylpiperidin-3-yl)phenyl)amino)methyl)phenyl)amino)-5-(trifluoromethyl)pyrimidin-4-yl)amino)-N-methylbenzamide]	1.45 nM		AUC(0-inf) ([1]; 5 mg/kg): 0.548 µM·h; AUC(0-t) ([1]; 5 mg/kg): 0.54 µM·h; Cmax ([1]; 5 mg/kg): 130 nM; Tmax ([1]; 5 mg/kg): 2.67 h; half-life ([1]; 5 mg/kg): 57.6 min
C=CC(=O)N1CCC[C@H](c2cccc(NCc3ccc(Nc4ncc(C(F)(F)F)c(Nc5ccccc5C(=O)NOC)n4)cc3)c2)C1 [Compound 36, (R) 2-((2-((4-(((3-(1-acryloylpiperidin-3-yl)phenyl)amino)methyl)phenyl)amino)-5-(trifluoromethyl)pyrimidin-4-yl)amino)-N-methoxybenzamide]	0.97 nM	90 nM	AUC(0-inf) ([1]; 3 mg/kg): 0.711 µM·h; AUC(0-t) ([1]; 3 mg/kg): 0.689 µM·h; Cmax ([1]; 3 mg/kg): 146 nM; Tmax ([1]; 3 mg/kg): 2.67 h; half-life ([1]; 3 mg/kg): 72 min
C=CC(=O)N1CCC[C@@H](c2cccc(NCc3ccc(Nc4ncc(C(F)(F)F)c(Nc5ccccc5C(=O)NOC)n4)cc3)c2)C1 [Compound 37, (S) 2-((2-((4-(((3-(1-acryloylpiperidin-3-yl)phenyl)amino)methyl)phenyl)amino)-5-(trifluoromethyl)pyrimidin-4-yl)amino)-N-methoxybenzamide]		120 nM	AUC(0-inf) ([1]; 3 mg/kg): 0.368 µM·h; AUC(0-t) ([1]; 3 mg/kg): 0.361 µM·h; Cmax ([1]; 3 mg/kg): 87.2 nM; Tmax ([1]; 3 mg/kg): 2.67 h; half-life ([1]; 3 mg/kg): 64.2 min; IC50 (FAK): 1.35 nM
